From ChEMBL document CHEMBL1201862, “PubChem BioAssay data set” (2004)
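1) Cells in 96-well plates. 2) Compound, 48 h, 5 concentrations. 3) Linear interpolation between surrounding doses. 4) Unreached endpoint = highest concentration. At the GI50, growth is halved.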 Active and inactive are the calls of the source. Cut-off read from the data, not from the text of the source: active = GI50 up to about 1.1 µM and inactive = higher.

Tests used:
Assay in all cases: NCI-60 cell line screen, 48 h
A498 = tested on: A498
DU-145 = tested on: DU-145
NCI-H23 = tested on: NCI-H23
IGROV-1 = tested on: IGROV-1
OVCAR-3 = tested on: OVCAR-3
SF-539 = tested on: SF-539
EKVX = tested on: EKVX
RPMI-8226 = tested on: RPMI-8226
NCI-H522 = tested on: NCI-H522
SNB-75 = tested on: SNB-75
KM12 = tested on: KM12
786-0 = tested on: 786-0
HCT-15 = tested on: HCT-15
UACC-62 = tested on: UACC-62
PC-3 = tested on: PC-3
UACC-257 = tested on: UACC-257
BT-549 = tested on: BT-549
UO-31 = tested on: UO-31
LOX IMVI = tested on: LOX IMVI
MOLT-4 = tested on: MOLT-4
MDA-N = tested on: MDA-N
NCI/ADR-RES = tested on: NCI/ADR-RES
A549 = tested on: A549
HT-29 = tested on: HT-29
RXF 393 = tested on: RXF 393
SF-295 = tested on: SF-295
CCRF-CEM = tested on: CCRF-CEM
SK-OV-3 = tested on: SK-OV-3
MDA-MB-435 = tested on: MDA-MB-435
OVCAR-8 = tested on: OVCAR-8
SNB-19 = tested on: SNB-19
T47D = tested on: T47D
CAKI-1 = tested on: CAKI-1
Hs-578T = tested on: Hs-578T
SW-620 = tested on: SW-620
HOP-92 = tested on: HOP-92
ACHN = tested on: ACHN
K562 = tested on: K562
NCI-H460 = tested on: NCI-H460
SK-MEL-2 = tested on: SK-MEL-2
HCC 2998 = tested on: HCC 2998
SF-268 = tested on: SF-268
SR = tested on: SR
Malme-3M = tested on: Malme-3M
SN12C = tested on: SN12C
MDA-MB-231 = tested on: MDA-MB-231
OVCAR-4 = tested on: OVCAR-4
MCF7 = tested on: MCF7
OVCAR-5 = tested on: OVCAR-5
U-251 = tested on: U-251
COLO 205 = tested on: COLO 205
M14 = tested on: M14
HCT-116 = tested on: HCT-116
NCI-H226 = tested on: NCI-H226
SK-MEL-5 = tested on: SK-MEL-5
HL-60 = tested on: HL-60
SK-MEL-28 = tested on: SK-MEL-28
LXFL 529 = tested on: LXFL 529
HOP-62 = tested on: HOP-62
TK-10 = tested on: TK-10
KM-20L2 = tested on: KM-20L2
DMS-273 = tested on: DMS-273
DMS-114 = tested on: DMS-114

Measured: GI50

CCOC(=O)/C(C(N)=O)=C(/O)c1cnccn1
inactive: A498 > 100 µM | DU-145 > 100 µM | NCI-H23 > 100 µM | IGROV-1 > 100 µM | OVCAR-3 > 100 µM | SF-539 > 100 µM | EKVX > 100 µM | RPMI-8226 > 100 µM | NCI-H522 > 100 µM | SNB-75 > 100 µM | KM12 > 100 µM | 786-0 > 100 µM | UACC-62 > 100 µM | PC-3 > 100 µM | UACC-257 > 100 µM | BT-549 > 100 µM | UO-31 > 100 µM | LOX IMVI > 100 µM | MOLT-4 > 100 µM | MDA-N > 100 µM | NCI/ADR-RES > 100 µM | A549 > 100 µM | HT-29 > 100 µM | RXF 393 > 100 µM | SF-295 > 100 µM | CCRF-CEM > 100 µM | SK-OV-3 > 100 µM | MDA-MB-435 > 100 µM | OVCAR-8 > 100 µM | SNB-19 > 100 µM | T47D > 100 µM | CAKI-1 > 100 µM | Hs-578T > 100 µM | SW-620 > 100 µM | HOP-92 > 100 µM | ACHN > 100 µM | K562 > 100 µM | NCI-H460 > 100 µM | SK-MEL-2 > 100 µM | HCC 2998 > 100 µM | SF-268 > 100 µM | SR > 100 µM | Malme-3M > 100 µM | SN12C > 100 µM | MDA-MB-231 > 100 µM | OVCAR-4 > 100 µM | MCF7 > 100 µM | OVCAR-5 > 100 µM | U-251 > 100 µM | COLO 205 > 100 µM | M14 > 100 µM | HCT-116 > 100 µM | NCI-H226 > 100 µM | SK-MEL-5 > 100 µM | HL-60 > 100 µM | SK-MEL-28 > 100 µM
> 100 µM: HCT-15

Nc1nc(=S)c2ncn(C3CC(O)C(CO)O3)c2[nH]1 (stereo not drawn)
inactive: LXFL 529 > 100 µM

COC(=O)/C=C\C(C#N)(C#N)/N=C/c1ccc(OC)cc1
active: RPMI-8226 0.48 µM | NCI-H522 0.615 µM | MOLT-4 1.06 µM | CCRF-CEM 0.162 µM | SR 0.681 µM
inactive: A498 18.5 µM | HOP-62 17.7 µM | DU-145 7.01 µM | NCI-H23 8.95 µM | IGROV-1 15 µM | OVCAR-3 2.72 µM | SF-539 4.99 µM | EKVX 16.6 µM | SNB-75 16.4 µM | KM12 16.7 µM | 786-0 1.99 µM | UACC-62 15.9 µM | PC-3 7.4 µM | UACC-257 4.83 µM | BT-549 5.04 µM | UO-31 2.25 µM | LOX IMVI 3.12 µM | MDA-N 4.75 µM | NCI/ADR-RES 2.73 µM | A549 19.5 µM | HT-29 5.31 µM | RXF 393 2.19 µM | SF-295 25.1 µM | SK-OV-3 17.3 µM | MDA-MB-435 2.33 µM | OVCAR-8 2.89 µM | TK-10 2.63 µM | SNB-19 > 44.7 µM | T47D 1.54 µM | CAKI-1 2.08 µM | Hs-578T 10 µM | SW-620 1.99 µM | HOP-92 1.92 µM | ACHN 2.82 µM | K562 3.41 µM | NCI-H460 19.5 µM | SK-MEL-2 18.3 µM | HCC 2998 20.6 µM | SF-268 4.94 µM | Malme-3M 1.73 µM | SN12C 15.3 µM | MDA-MB-231 18 µM | OVCAR-4 1.92 µM | MCF7 2.73 µM | OVCAR-5 21.7 µM | U-251 17.9 µM | COLO 205 1.65 µM | M14 3.08 µM | HCT-116 1.84 µM | NCI-H226 10.8 µM | SK-MEL-5 17.8 µM | HL-60 1.45 µM | SK-MEL-28 2.7 µM
3.85 µM: HCT-15

CN(C)C(=S)/N=c1\ss/c(=N\C(=S)N(C)C)n1-c1ccc2c(c1)OCO2
inactive: A498 > 100 µM | HOP-62 > 100 µM | NCI-H23 > 100 µM | IGROV-1 10 µM | OVCAR-3 > 100 µM | SF-539 > 100 µM | EKVX > 100 µM | NCI-H522 15.6 µM | SNB-75 > 100 µM | KM12 > 100 µM | 786-0 > 100 µM | UACC-62 5.56 µM | UACC-257 > 100 µM | UO-31 > 100 µM | LOX IMVI > 100 µM | A549 > 100 µM | RXF 393 > 100 µM | KM-20L2 > 100 µM | SF-295 > 100 µM | SK-OV-3 > 100 µM | DMS-273 > 100 µM | OVCAR-8 > 100 µM | TK-10 > 100 µM | SNB-19 > 100 µM | DMS-114 5.11 µM | CAKI-1 > 100 µM | SW-620 > 100 µM | ACHN > 100 µM | K562 4.86 µM | SK-MEL-2 > 100 µM | HCC 2998 > 100 µM | SF-268 > 100 µM | SR > 100 µM | Malme-3M > 100 µM | SN12C > 100 µM | OVCAR-4 4.19 µM | OVCAR-5 > 100 µM | U-251 > 100 µM | M14 > 100 µM | HCT-116 > 100 µM | NCI-H226 > 100 µM | SK-MEL-5 > 100 µM | HL-60 3.27 µM | SK-MEL-28 > 100 µM
> 100 µM: HCT-15

COc1cc(/C=C/C(=O)N[C@@H]2C(=O)N3[C@@H]2SC(C)(C)[C@@H]3C(=O)O)ccc1O
> 100 µM: HCT-15
inactive: A498 > 100 µM | HOP-62 > 100 µM | DU-145 > 100 µM | NCI-H23 > 100 µM | OVCAR-3 > 100 µM | SF-539 > 100 µM | EKVX > 100 µM | RPMI-8226 > 100 µM | NCI-H522 > 100 µM | SNB-75 > 100 µM | KM12 > 100 µM | 786-0 > 100 µM | UACC-62 > 100 µM | PC-3 > 100 µM | UACC-257 > 100 µM | BT-549 > 100 µM | UO-31 > 100 µM | LOX IMVI 75 µM | MOLT-4 > 100 µM | MDA-N > 100 µM | NCI/ADR-RES > 100 µM | A549 > 100 µM | HT-29 > 100 µM | RXF 393 > 100 µM | SF-295 > 100 µM | CCRF-CEM > 100 µM | SK-OV-3 > 100 µM | MDA-MB-435 > 100 µM | OVCAR-8 > 100 µM | TK-10 > 100 µM | SNB-19 > 100 µM | T47D > 100 µM | CAKI-1 > 100 µM | Hs-578T > 100 µM | SW-620 > 100 µM | HOP-92 > 100 µM | ACHN > 100 µM | K562 > 100 µM | NCI-H460 > 100 µM | SK-MEL-2 > 100 µM | HCC 2998 > 100 µM | SF-268 > 100 µM | SR > 100 µM | SN12C > 100 µM | MDA-MB-231 > 100 µM | OVCAR-4 > 100 µM | MCF7 > 100 µM | OVCAR-5 > 100 µM | U-251 > 100 µM | COLO 205 > 100 µM | M14 > 100 µM | HCT-116 > 100 µM | NCI-H226 > 100 µM | SK-MEL-5 > 100 µM | HL-60 > 100 µM | SK-MEL-28 > 100 µM

O=C(Oc1cccc2cccnc12)c1cc2cc(CCl)ccc2oc1=O
2.77 µM: HCT-15
inactive: A498 48.8 µM | HOP-62 44.3 µM | DU-145 20.7 µM | NCI-H23 8.39 µM | IGROV-1 24.4 µM | OVCAR-3 3.68 µM | SF-539 18 µM | EKVX 2.4 µM | RPMI-8226 4.94 µM | NCI-H522 2.18 µM | SNB-75 56 µM | KM12 24 µM | 786-0 20.7 µM | UACC-62 8.57 µM | PC-3 12.7 µM | UACC-257 6.05 µM | BT-549 31.5 µM | UO-31 9.91 µM | LOX IMVI 25.3 µM | MOLT-4 2.8 µM | MDA-N 16.1 µM | NCI/ADR-RES 4.18 µM | A549 27.7 µM | HT-29 8.09 µM | RXF 393 17.3 µM | SF-295 37.4 µM | SK-OV-3 > 100 µM | MDA-MB-435 10.8 µM | OVCAR-8 34 µM | TK-10 25.5 µM | SNB-19 43.7 µM | T47D 4.29 µM | CAKI-1 29.9 µM | Hs-578T 46.2 µM | SW-620 4.56 µM | HOP-92 34.2 µM | ACHN 19 µM | K562 3.1 µM | NCI-H460 10.9 µM | SK-MEL-2 17.6 µM | HCC 2998 20.3 µM | SF-268 18.5 µM | SR 4.27 µM | Malme-3M 15.7 µM | SN12C 10.6 µM | MDA-MB-231 27.1 µM | OVCAR-4 25.6 µM | MCF7 3.14 µM | OVCAR-5 31.5 µM | U-251 24.3 µM | COLO 205 6.3 µM | M14 5.64 µM | HCT-116 3.4 µM | NCI-H226 75.9 µM | SK-MEL-5 21.9 µM | HL-60 3.22 µM | SK-MEL-28 30.1 µM
active: CCRF-CEM 0.277 µM
